One data set has as its system E. coli K0519020. Put plainly: MIC of strain used for extraction of enzymes, E. coli K0519020 (CTX-M-15, TEM-1, OXA-1, AmpC (NC_000913)). Format: cell-based. Particulars: BLI: 4 ug/mL.
The target in data set [1] is T1, CMY-10 β-lactamase (class C) (Klebsiella aerogenes, UniProt Q99QC1).
T1 construct: MICs of bacterial strains used for extraction of enzymes; endogenous in cells
The data set is described as follows: Inhibitory activity against β-lactamases (nitrocefin), CMY-10. Format: biochemical. The procedure: More diluted stocks were prepared as necessary. Enzyme activity was determined by monitoring the change of absorbance at 492 nm using the characteristic molecular extinction coefficient (Δε492=17,400 M^−1 cm^−1) of nitrocefin by a Shimazu UV-1650PC spectrophotometer. The nitrocefin was purchased from OXOID. Kinetic measurements were run at 30° C. in 10 mM MES[2-(N-morpholino)ethanesulfonic acid]buffer (pH 6.8) or 10 mM MES[2-(N-morpholino)ethanesulfonic acid] buffer (pH 6.8), […] BSA and 50 mM sodium bicarbonate. Reactions were performed in 2.5 mL cuvettes with 100 μM nitrocefin and initiated by adding 1.5 nM to 2.5 nM enzyme. The first 180 s of each reaction was used to measure initial rates. Data were evaluated using Microsoft Excel. Concentration dependent inhibition of enzyme was measured using different concentrations of inhibitors resulting from two-fold dilution series. Reaction progress at every concentration of inhibitor was measured in triplicates. IC50 values were calculated using 4-parameter log fits using XL Fit curve fitting software (www.idbs.com) for Excel using the following equation:
[formula] where y is the remaining enzyme activity (in %) and x is the corresponding concentration. he fitted IC50 parameter is the relative IC50, and is defined as the concentration giving a response half way between the fitted top (B) and bottom (A) of the curve.

The next data set deals with E. aerogenes K9911729. Put plainly: MIC of strain used for extraction of enzymes, E. aerogenes K9911729 (CMY-10, TEM-1, SHV-12, AmpC (DQ478697)). Format: cell-based. Particulars: BLI: 4 ug/mL.
In another data set the test system is E. coli TOPDXA048. The data set is described as follows: MIC of strain used for extraction of enzymes, E. coli TOPDXA048 (OXA-48, TEM-116, AmpC (NC_000913)). Format: cell-based.
Another data set relates to E. coli ECO200. The data set is described as follows: MIC of strain used for extraction of enzymes, E. coli ECO200 (NDM-1, TEM-1, CTX-M-15, EC (AmpC), OXA-2 type). The data set is classed as cell-based.
The test system of another data set is K. pneumoniae CL5761. Put plainly: MIC of strain used for extraction of enzymes, K. pneumoniae CL5761 (KPC-3, TEM-216, SHV-5). The data set is classed as cell-based. Particulars: BLI: 4 ug/mL. The protocol: (§1) MIC90 (μg/mL) is the lowest concentration of an antibiotic that will inhibit the visible growth of 90% of microorganisms after incubation as compared with a control group to which the antibiotic is not treated.
(§2) MIC values were measured by the broth microdilution method developed by the Clinical and Laboratory Standards Institute (CLSI) (see CLSI M07-A9, Methods for Dilution Antimicrobial Susceptibility Test for Bacteria that Grow Aerobically; Approved Standard-Ninth Edition (2012): CLSI, Villanova, Pa.). The in vitro antibacterial activity was measured with respect to the following 9 clinical isolates: P. aeruginosa (3 strains); K. pneumoniae (6 strains). The in vitro antibacterial activity of selected compounds was measured with respect to the following 15 clinical isolates: K. pneumoniae (15 strains).

In another data set the test system is K. pneumoniae 3784. Put plainly: BLI potentiation MIC, K. pneumoniae 3784 (SHV-11, SHV-12, DHA-1). Format: cell-based. Particulars: incubation 19 h; for MIC of Meropenem with BLI: BLI fixed 4 ug/ml. The protocol:
as §1, §2

For the next data set, the system named is K. pneumoniae 5576. The data set is described as follows: BLI potentiation MIC, K. pneumoniae 5576 (SHV-11, CMY-2, DHA-1, TEM-1). The data set is classed as cell-based. Particulars: Klebsiella pneumoniae, 5576, 19 h, read-out: MIC of Ceftazidime alone, no BLI; incubation 19 h. The protocol: as §1, §2
In another data set the test system is K. pneumoniae ATCC700603. The data set is described as follows: BLI potentiation MIC, K. pneumoniae ATCC700603 (SHV-3). Particulars: Klebsiella pneumoniae, ATCC700603, 19 h, read-out: MIC of Ceftazidime alone, no BLI; incubation 19 h. Format: cell-based. The procedure: as §1, §2
For a further data set, the system named is P. aeruginosa ATCC27853. The data set is described as follows: BLI potentiation MIC (broth microdilution), P. aeruginosa ATCC27853 (PoxB, AmpC). Particulars: incubation 19 h; for MIC of Meropenem with BLI: BLI fixed 4 ug/ml. The data set is classed as cell-based. The procedure: as §1, §2
In the next data set the test system is K. pneumoniae 4006. The data set is described as follows: BLI potentiation MIC, K. pneumoniae 4006 (SHV-12, CTX-M-15, TEM-1, OXA-9). Particulars: Klebsiella pneumoniae, 4006, 19 h, read-out: MIC of Ceftazidime alone, no BLI; incubation 19 h. The data set is classed as cell-based. The procedure:
as §1, §2

Another data set can be described thus: Mouse pharmacokinetics. Format: in vivo, ICR mouse. Particulars: IV, 50 mg/kg, plasma; for AUC(0-inf) / Cmax / Tmax / clearance / half-life / Vd: ICR; for Vd: read-out: Vss. The protocol: The pharmacokinetics values were evaluated in a mouse model. The test compound (50 mg/kg) was injected into the tail vein of 8 week old ICR mouse, weighing approximately 26-30 g. […] Lab conditions were temperature of 22±3° C. and humidity of 50±20%.

The next data set deals with P. aeruginosa ARC3514. The data set is described as follows: BLI potentiation MIC, P. aeruginosa ARC3514 (KPC-2, OprD−, AmpC). Format: cell-based. Particulars: BLI fixed 4 ug/ml; incubation 19 h. The protocol: as §1, §2
For another data set, the system named is K. pneumoniae 4248. The data set is described as follows: BLI potentiation MIC, K. pneumoniae 4248 (SHV-11, CTX-M-15, TEM-1, OXA-1). Particulars: BLI fixed 4 ug/ml; incubation 19 h. Format: cell-based. The protocol:
as §1, §2

The subject of the next data set is K. pneumoniae NDM-506. The data set is described as follows: BLI potentiation MIC, K. pneumoniae NDM-506. Format: cell-based. Particulars: BLI fixed 4 ug/ml; incubation 19 h. The protocol: as §1, §2
The subject of the next data set is P. aeruginosa ARC3506. Put plainly: BLI potentiation MIC, P. aeruginosa ARC3506 (VEB-1, OXA-10, OprD−, AmpC). Format: cell-based. Particulars: BLI fixed 4 ug/ml; incubation 19 h. The protocol:
as §1, §2

The values that follow come from patent US10273235B2, “Compositions and methods for inhibiting β-lactamase” (LegoChem Biosciences, Inc., priority 2015, dated 2019).

Structures can show the parent of a compound that is named as a salt. Bounds are passed on as bounds.

T1 sequence (Q99QC1 24-382): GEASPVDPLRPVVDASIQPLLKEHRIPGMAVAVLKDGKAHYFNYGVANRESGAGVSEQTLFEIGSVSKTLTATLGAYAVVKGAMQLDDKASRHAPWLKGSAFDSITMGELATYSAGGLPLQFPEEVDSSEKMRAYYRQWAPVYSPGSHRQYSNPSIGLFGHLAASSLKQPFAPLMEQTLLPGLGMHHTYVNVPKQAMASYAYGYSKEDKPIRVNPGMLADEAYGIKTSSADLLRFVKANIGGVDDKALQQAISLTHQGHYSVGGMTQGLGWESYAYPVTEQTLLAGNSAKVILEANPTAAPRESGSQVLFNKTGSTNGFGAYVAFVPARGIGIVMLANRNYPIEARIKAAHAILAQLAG

As to `NC(=O)[C@@H]1CC[C@@H]2CN1C(=O)N2OS(=O)(=O)O` [Avibactam], the “MIC of Meropenem with BLI” value in the data set with E. coli K0519020 was 0.25 µg/mL; in the data set with E. aerogenes K9911729, 0.5 µg/mL; in the data set on E. coli TOPDXA048 (BLI: 4 ug/mL), 0.5 µg/mL; in the data set on E. coli ECO200 (BLI: 4 ug/mL), greater than 64 µg/mL; in the data set with K. pneumoniae CL5761, 1 µg/mL. Moreover, the MIC (in general, the smallest concentration in the dilution series that meets the test's criterion for growth inhibition) is 0.25 µg/mL in the data set on E. coli K0519020 (Escherichia coli, K0519020, read-out: MIC of LCB10-0200 with BLI); 2 µg/mL in the data set on E. aerogenes K9911729 (Klebsiella aerogenes, K9911729, read-out: MIC of LCB10-0200 with BLI); 0.25 µg/mL in the data set with E. coli TOPDXA048 (Escherichia coli, TOPDXA048, read-out: MIC of LCB10-0200 with BLI); greater than 64 µg/mL with E. coli ECO200 (Escherichia coli, ECO200, read-out: MIC of LCB10-0200 with BLI); 16 µg/mL in the data set with K. pneumoniae CL5761 (Klebsiella pneumoniae, CL5761, read-out: MIC of LCB10-0200 with BLI). Moreover, in [1], half-maximal inhibition (IC50) was put at 13 nM.
Regarding `CC(C)(O/N=C(\C(=O)N[C@@H]1C(=O)N2C(C(=O)[O-])=C(C[n+]3ccccc3)CS[C@H]12)c1csc(N)n1)C(=O)O` [Ceftazidime], the MIC with K. pneumoniae 3784 (Klebsiella pneumoniae, 3784, 19 h, read-out: MIC of Ceftazidime alone, no BLI) is greater than 64 µg/mL; with K. pneumoniae 5576, greater than 64 µg/mL; in the data set on K. pneumoniae ATCC700603, 32 µg/mL; in the data set with P. aeruginosa ATCC27853 (Pseudomonas aeruginosa, ATCC27853, 19 h, read-out: MIC of Ceftazidime alone, no BLI), 2 µg/mL; in the data set on K. pneumoniae 4006 it was greater than 64 µg/mL.
Turning to `NCC1CC([C@@H]2CC[C@@H]3CN2C(=O)N3OS(=O)(=O)O)=NO1` (stereo partly drawn) [Example 2, [(2S,5R)-2-[5-(aminomethyl)-4,5-dihydroisoxazol-3-yl]-7-oxo-1,6-diazabicyclo[3.2.1]octan-6-yl] hydrogen sulfate], in “Mouse pharmacokinetics”, the area under the curve AUC(0-inf) (in general, the area under the concentration-time curve extrapolated to infinity) was 34500 ± 3610 ng·h/mL; the Cmax (as a rule, the highest concentration seen after dosing) is 74.4 ± 3.44 µg/mL; the Tmax (usually the time at which the peak concentration occurs) was found to be 4.8 min; the clearance (in general, the rate of elimination divided by the concentration) was 24.3 mL/min/kg. For the same molecule, in the data set “Mouse pharmacokinetics”, the half-life (as a rule, how long it takes for the measured level to halve) was 88.2 ± 9.6 min; the Vd turned out to be 1.57 ± 0.12 L/kg; the AUCnorm is 0.69 ± 0.07 kg·h/L; the “Cmax, norm” value was determined as 1.49 ± 0.07 kg/L.
`NCC1(CN)CC([C@@H]2CC[C@@H]3CN2C(=O)N3OS(=O)(=O)O)=NO1` [Example 5, [(2S,5R)-2-[5,5-bis(aminomethyl)-4H-isoxazol-3-yl]-7-oxo-1,6-diazabicyclo[3.2.1]octan-6-yl] hydrogen sulfate]: in the data set “Mouse pharmacokinetics”, the AUC(0-inf) is 55300 ± 4160 ng·h/mL, the concentration peaked (Cmax) at 103 ± 9.93 µg/mL, the Tmax worked out at 4.8 min and the clearance is 15.2 mL/min/kg. In “Mouse pharmacokinetics”, the half-life was 191 ± 93.6 min; the Vd stood at 2.23 ± 0.61 L/kg; the AUCnorm is 1.11 ± 0.08 kg·h/L; the “Cmax, norm” value was found to be 2.06 ± 0.20 kg/L.
`NC(=O)CN1CCC2(CC([C@@H]3CC[C@@H]4CN3C(=O)N4OS(=O)(=O)O)=NO2)C1` (stereo partly drawn) [Example 12, [(2S,5R)-2-[7-(2-amino-2-oxo-ethyl)-1-oxa-2,7-diazaspiro[4.4]non-2-en-3-yl]-7-oxo-1,6-diazabicyclo[3.2.1]octan-6-yl] hydrogen sulfate]: the “MIC of Meropenem with BLI” value in the data set on P. aeruginosa ARC3514 is greater than 64 µg/mL; in the data set on K. pneumoniae 3784, 1 µg/mL; in the data set on K. pneumoniae 4248 it was 0.125 µg/mL; with K. pneumoniae NDM-506 it was greater than 64 µg/mL; in the data set on P. aeruginosa ARC3506 it was 64 µg/mL; in the data set on P. aeruginosa ATCC27853 it was 2 µg/mL.
For `NCC1(CO)CC([C@@H]2CC[C@@H]3CN2C(=O)N3OS(=O)(=O)O)=NO1` (stereo partly drawn) [Example 13, [(2S,5R)-2-[5-(aminomethyl)-5-(hydroxymethyl)-4H-isoxazol-3-yl]-7-oxo-1,6-diazabicyclo[3.2.1]octan-6-yl] hydrogen sulfate], the “MIC of Meropenem with BLI” value in the data set on P. aeruginosa ARC3514 is greater than 64 µg/mL; with K. pneumoniae 3784, 0.25 µg/mL; in the data set with K. pneumoniae 4248 it was 0.0625 µg/mL; in the data set on K. pneumoniae NDM-506 it was greater than 64 µg/mL; with P. aeruginosa ARC3506, 32 µg/mL; in the data set on P. aeruginosa ATCC27853, 2 µg/mL.
`NCC1(C(N)=O)CC([C@@H]2CC[C@@H]3CN2C(=O)N3OS(=O)(=O)O)=NO1` (stereo partly drawn) [Example 14, [(2S,5R)-2-[5-(aminomethyl)-5-carbamoyl-4H-isoxazol-3-yl]-7-oxo-1,6-diazabicyclo[3.2.1]octan-6-yl] hydrogen sulfate]: the “MIC of Meropenem with BLI” value with P. aeruginosa ARC3514 was greater than 64 µg/mL; in the data set on K. pneumoniae 3784, 0.25 µg/mL; with K. pneumoniae 4248, 0.0625 µg/mL; in the data set on K. pneumoniae NDM-506 it was greater than 64 µg/mL; with P. aeruginosa ARC3506, 64 µg/mL; in the data set on P. aeruginosa ATCC27853 it was 2 µg/mL.
